The target in this experiment is 11-beta-hydroxysteroid dehydrogenase 1 (Homo sapiens, UniProt P28845). The experiment can be described thus: Inhibition of 11beta-HSD1.

SMILES strings stand for the structures.

11-beta-hydroxysteroid dehydrogenase 1, sequence (P28845 whole entry): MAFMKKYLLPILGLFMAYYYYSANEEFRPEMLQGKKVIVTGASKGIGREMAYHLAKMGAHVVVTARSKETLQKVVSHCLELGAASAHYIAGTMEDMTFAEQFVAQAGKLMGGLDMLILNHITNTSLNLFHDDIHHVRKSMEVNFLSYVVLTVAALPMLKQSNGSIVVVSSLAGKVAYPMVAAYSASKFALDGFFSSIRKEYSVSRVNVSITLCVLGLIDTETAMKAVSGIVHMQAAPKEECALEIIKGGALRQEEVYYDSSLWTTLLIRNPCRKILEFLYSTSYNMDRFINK

As usually defined, the IC50 is the concentration needed to halve the response being measured. High values mean a need for much substance, low ones inhibition by little substance. `CC(C)(Oc1ccc(Cl)cc1)C(=O)N[C@H]1C2CCCC1C[C@H](C(N)=O)C2` gave an IC50 of 21.9 nM. That is a double-digit nanomolar value.
The value for `O=C(c1ccc(NCc2ccc(F)cc2)cc1)N1CCC[C@H]2CCCC[C@@H]21` was 50.1 nM.
To `CCCc1nnc(C23CC4CC(CC(C4)C2)C3)n1CC` belongs 52.5 nM; to `CNc1ccc(C(C)(C)C(=O)N[C@H]2C3CC4CC2C[C@](C(N)=O)(C4)C3)cn1`, 28.8 nM; to `O=C(Nc1cccc(C(=O)N2CCC[C@H]3CCCC[C@@H]32)c1)c1ccccc1`, 14.1 nM.
On to `O=C(Nc1ccc(C(=O)N2CCC[C@H]3CCCC[C@@H]32)cc1)c1ccc(Cl)cc1`, for which the midpoint of inhibition, the IC50, lay at 1100 nM.
To `CCC1CCCCN1C(=O)c1ccc(NC(=O)c2ccc(Cl)cc2Cl)cc1` (stereo not drawn) belongs 1070 nM.
To `CC(C)(Oc1ccc(N2CCOCC2)cn1)C(=O)N[C@H]1C2CC3CC1C[C@](C(N)=O)(C3)C2` belongs 43.7 nM.
To `CC(C)(Oc1ccc(C#N)cn1)C(=O)N[C@H]1C2COCC1C[C@H](C(N)=O)C2` belongs 11 nM; to `CN1CCN(c2ccc(OC(C)(C)C(=O)N[C@H]3C4CC5CC3C[C@](C(N)=O)(C5)C4)nc2)CC1`, 186 nM.
On to `O=C(Cc1ccccc1)Nc1ccc(C(=O)N2CCC[C@H]3CCCC[C@@H]32)cc1`, for which 380 nM corresponded to half-maximal inhibition (IC50).
As to `CC(C)(Oc1ccc(Cl)cc1)C(=O)N[C@H]1C2CC3CC1C[C@](Cc1nnn[nH]1)(C3)C2`, the IC50 is 40.7 nM. Against the preceding molecule, the IC50 is about 9.3-fold lower.
To `CCCn1c(CC)nnc1C12CC3CC(CC(C3)C1)C2` belongs 11 nM; to `CCCCCC12CCC(c3nnc4n3CCCCC4)(CC1)CC2`, 5.01 nM; to `Cn1c(-c2ccc(C=O)cc2Cl)nnc1C12CCC(c3nc(-c4ccc(F)cc4)no3)(CC1)CC2`, 21.9 nM.
To `O=C(c1ccc(C(=O)N2CCC[C@H]3CCCC[C@@H]32)cc1)N1CCCc2ccccc21` belongs 182 nM; to `CC(C)(C(=O)N[C@H]1C2CC3CC1C[C@](C(N)=O)(C3)C2)c1ccc(C#N)cn1`, 14.1 nM.
The value for `CC1CCCCN1C(=O)c1ccc(NC(=O)c2ccc(Cl)cc2Cl)cc1` (stereo not drawn) was 7940 nM.
Molecule `CCCCn1c(C)nnc1C12CC3CC(CC(C3)C1)C2` had an IC50 of 72.4 nM.
The value for `O=C(Nc1ccc(C(=O)N2CCC[C@H]3CCCC[C@@H]32)cc1)c1ccccc1Cl` was 1580 nM.
To `CC(C)(Oc1ccc(C#N)cn1)C(=O)N[C@H]1C2CC3CC1C[C@](C(N)=O)(C3)C2` belongs 28.2 nM; to `CC(C)(C(=O)N[C@H]1C2CC3CC1C[C@](C(N)=O)(C3)C2)c1ccc(N2CCOCC2)nc1`, 46.8 nM; to `CC(C)(Oc1ccc(-n2cccn2)cn1)C(=O)N[C@H]1C2CC3CC1C[C@](C(N)=O)(C3)C2`, 5.01 nM.

The record behind these values is ChEMBL document CHEMBL1144041, “Docking-based 3D-QSAR study for 11beta-HSD1 inhibitors” (Bioorg Med Chem Lett, 2008).
